Numbers after ± are expanded uncertainties.
Experiment: wn = mass fraction of the nth substance listed
Conditions: 101 kPa, Liquid; for viscosity: Falling or rolling sphere viscometry; for speed of sound: Frequency=3 MHz, Single path-length method; for mass density: Vibrating tube method

Cl.NNC(N)=O [semicarbazide hydrochloride] + O
Conditions	mass density, w1 = 0.01 [kg/m3]	mass density, w1 = 0.02 [kg/m3]	speed of sound, w1 = 0.01 [m/s]	speed of sound, w1 = 0.02 [m/s]	viscosity, w1 = 0.01 [mPa·s]	viscosity, w1 = 0.02 [mPa·s]
293.15 K	1002.51 ± 0.52	1006.71 ± 0.52	1490 ± 3.1	1495.8 ± 3.1	1.016 ± 0.013	1.031 ± 0.013
298.15 K	1001.29 ± 0.52	1005.43 ± 0.51	1503 ± 3.1	1509 ± 3.1	0.9018 ± 0.011	0.9134 ± 0.012
303.15 K	999.819 ± 0.52	1003.99 ± 0.51	1515.1 ± 3.1	1520.9 ± 3.1	0.8053 ± 0.01	0.8152 ± 0.01
308.15 K	998.185 ± 0.52	1002.31 ± 0.51	1525.6 ± 3.1	1531.2 ± 3.1	0.7251 ± 0.0091	0.733 ± 0.0093
313.15 K	996.304 ± 0.51	1000.34 ± 0.51	1534.3 ± 3.1	1540 ± 3.1	0.6562 ± 0.0082	0.6646 ± 0.0084
318.15 K	994.429 ± 0.51	998.472 ± 0.51	1540.7 ± 3.1	1546.7 ± 3.1	0.6021 ± 0.0076	0.6062 ± 0.0076

From the NIST ThermoML archive (doi:10.1016/j.jct.2019.03.011)
